Experimental data from patent publication US5486532A, “Benzospiroalkenes” (Adir et Compagnie, priority 1993, dated 1996).

Key:
[1] = test system: arterial pressure in amyelated rats; assay: In vivo study in amyelated rats, arterial pressure; design: species or system Sprague Dawley rats; settings: Rattus norvegicus, iv, tertatolol pretreated, no prazosin or yohimbine, read-out: C20 Control (concentration which increases the pressure by 20 mmHg)
Source text: (§1) Male Sprague Dawley rats (300-400 g) are anesthetized with ether. The trachea is cannulated, the spinal column is destroyed using a stainless-steel rod and the animal is 1. 5 immediately placed under artificial respiration. The vagus nerves are dissected. The carotid arteries are ligatured and a catheter is placed in one and serves to record the arterial pressure. Three other catheters are placed in the jugular veins and in the vein of the penis and serve for the injections. The temperature of the animals is maintained at 36° C. The animal is pretreated by an injection of tertatolol […]. The animal is also pretreated 10 minutes later with prazosin ([…]) or yohimbine (1 mg/kg) when it is desired to determine the alpha1 - or alpha2-adrenergic properties of the product. Ten minutes later, increasing cumulative doses of product are injected every 20 seconds. The variations in arterial pressure are detected using a Statham P23XL pressure cell and are recorded. The pressure values are expressed in mmHg. This experiment makes it possible to calculate the concentration which increases the pressure by 20 mmHg (C20) by non-linear regression according to the mass action law model of Michaelis and Menten as described above. The maximum effect obtained is subsequently convened to a percentage relative to the maximum effect induced by phenylephrine. The alpha1 - or alpha2-adrenergic components of the product are evaluated using the C20 ratio obtained in the presence of prazosin or yohimbine on the values obtained in the absence of these antagonists. In amyelated rats, the products of the invention produce hypertensions which are sensitive to prazosin and to yohimbine.

saphena veins = assay: Contraction of isolated dog saphena veins; settings: Canis lupus familiaris; for EC50: dog saphena vein rings, cumulative doses; for Emax: maximum contraction relative to 100 mM KCl, dog saphena vein, read-out: VEIN Max
Description: (§2) The technique used is based on that described by Fowler et al. (J. Pharmacol. Exp. Ther., 229, 712-718, 1984). Male or female mongrel dogs of approximately 15-25 kg were used as organ sources. The animals are anesthetized with pentobarbital (30 mg/kg intravenously). The legs are incized and the blood vessels removed. They are placed in Krebs-Ringer liquid (118 mM NaCl; 25 mM NaHCO3; 10 mM Glucose; 4.7 mM KCl; 1.25 mM CaCl2; 1.19 mM MgSO4; 1.14 mM KH2 PO4) at room temperature and under a sparge of carbogen (95% O2, 5% CO2). These blood vessels are then carefully freed of their fat and then cut into rings 2 mm wide and mounted under a base tension of 4 g (femoral arteries) or 1 g (saphena veins) in tanks thermostated at 37° C. containing Krebs-Ringer liquid and constantly sparged with carbogen. A lower hook constitutes the fixed point, whereas the upper hook is connected to an isometric force sensor. The variations in tension are digitized, stored on disk and processed by an information technology system. After mounting, the organs are left to rest for 90 minutes, with rinses being carried out every 30 min. After readjustment of the base tension, a contraction is induced by a single dose of KCl (100 mM). After stabilization, washing and returning to the base line, a contraction is provoqued by a single dose of phenylephrine (submaximal concentration) in order to regulate the following contractions. After washing and returning to the baseline, an effect/concentration curve is produced by addition of cumulative doses of agonist (the space between the doses is a semi-log). This experiment makes it possible to calculate the 50% effective concentration (EC50) in the following way: the tension values are first of all converted to percentages relative to the maximum effect induced by 100 mM of KCl. This EC50 is determined by non-linear regression by the SIMPLEX method (M. S. Caceci, Byte, 340-362, 1984), calculated according to the mass action law model of L. Michaelis and M. L. Menten (Biochem. Zeitschrift, 49, 333-369, 1913).
(§3) E=(Emax*C^n)(EC^n +C^n) with E=effect; Emax=maximum effect; C=concentration; EC=EC50; n=Hill number
(§4) The products of the invention contract dog arteries and veins. The maximum for these contractions approaches that obtained with KCl.

dog femoral arteries = assay: Contraction of isolated dog femoral arteries; settings: Canis lupus familiaris; for EC50: dog femoral artery rings, cumulative doses; for Emax: maximum contraction relative to 100 mM KCl, dog femoral artery, read-out: ARTERY Max
Description: as §2, §3, §4

alpha1-adrenergic = assay: Amyelated rats, alpha1-adrenergic component (C20 ratio with prazosin); type: in vivo, Sprague Dawley rats; settings: pretreated with prazosin
Source text: as §1

alpha2-adrenergic = assay: Amyelated rats, alpha2-adrenergic component (C20 ratio with yohimbine); type: in vivo, Sprague Dawley rats; settings: pretreated with yohimbine (1 mg/kg)
Source text: as §1

Row | EC50 (saphena veins) | EC50 (dog femoral arteries) | Structure (SMILES) | ED (20 mmHg) [1] | Emax (saphena veins) | Emax (dog femoral arteries) | Ratio treated C20 / control C20, Prazosin (alpha1-adrenergic) | Ratio treated C20 / control C20, Yohimbine (alpha2-adrenergic)
1 | 200 nM | 1000 nM | Clc1cccc2c1CC1(CC2)CNC=N1 (centres unmarked) [Example 1, Spiro[(1,3-diazacyciopent-1-ene)-5:2'-(8'-chloro-1', 2',3',4'-tetrahydronaphthalene)]fumarate] | 0.2 µg/kg | 95% | 94% | 1.9 | 6.0
2 | – | – | Oc1cccc2c1CC1(CC2)CNC=N1 (centres unmarked) [Example 5, Spiro[(1,3-diazacyclopent-1-ene)-5:2'-(8'-hydroxy-1',2',3', 4'-tetrahydronaphthalene)]fumarate] | 4.8 µg/kg | – | – | 0.9 | 12.0
3 | 7000 nM | 2000 nM | Clc1cccc2c1CC1(CC2)CNC=N1 (single isomer, unassigned) [Example 6, Spiro[(1,3-diazacyclopent-1-ene)-5:2'-(8'-chloro-1',2',3', 4'-tetrahydronaphthalene)]L-(+)-tartrate, αisomer] | 0.1 µg/kg | 96% | 91% | 1.7 | 4.0
